The target in test [1] is PmDsbA. More on the design: method as in PMID 24831013. The note with it: ITC; cited from earlier work.
Test [2] deals with T1, Oxidized EcDsbA (Escherichia coli, UniProt P0AEG4).
T1 construct: made in house
In words: Isothermal titration calorimetry of compounds into EcDsbA. In kind it is binding. Particulars: 25°C. How it is done: Oxidized EcDsbA was diluted to 50 μM in 25 mM HEPES pH 7.4, 50 mM NaCl and 5% DMSO. Compounds were dissolved in 100% DMSO, and then diluted to a final concentration of 2 mM into 25 mM HEPES pH 7.4 50 mM NaCl with a final DMSO concentration of 5%. All experiments were performed using the MicroCal Auto-ITC200 instrument (GE Healthcare, USA), loading 200 μL of EcDsbA in the sample cell and 40 μL of compound in the syringe. Titrations were set up at 25°C with 19 injections of 2 μL separated by 180 seconds and a constant stirring speed of 1000 rpm. A preliminary injection of 0.5 μL was added to avoid slow leakage of titrant into the sample cell before the first 2 μL injection and the corresponding data point was excluded from analysis. Every compound was tested with three technical replicates. An additional titration of compound into buffer only (25 mM HEPES pH 7.4, 50 mM NaCl and 5% DMSO) was performed to measure the background heat of dilution. Analysis was performed with the MicroCal Origin software (version 7.0552).

T1 sequence (P0AEG4 20-208): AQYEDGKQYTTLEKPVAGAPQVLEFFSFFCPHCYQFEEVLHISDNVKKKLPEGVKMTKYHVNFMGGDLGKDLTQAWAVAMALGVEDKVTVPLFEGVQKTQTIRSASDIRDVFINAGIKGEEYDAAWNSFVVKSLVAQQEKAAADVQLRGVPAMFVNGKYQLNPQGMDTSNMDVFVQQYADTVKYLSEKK

PWATCDS: in test [1], the Kd was 8.3 ± 0.4 µM, the ΔH is -13.7 ± 0.3 kcal/mol and the ΔS was -22.3±1.1 cal.mol^-1.deg^-1.

For the compound `O=C(NCc1ccccc1)[C@H](Cc1c[nH]c2ccccc12)NC(=O)N1CCOCC1` [Compound 1, (S)-2-[N-(Morpholine-1-carbonyl)amino]-3-(1H-indol-3-yl)-N-(benzyl)propanamide], the “ITC binding to EcDsbA” value in test [2] (50 μM EcDsbA, 2 mM compound in syringe, 5% DMSO) is recorded as “little evidence of binding”. In addition, in test [2] (titration of EcDsbA), the “release of energy for the highest peak (ITC)” value was -0.60 µcal/s.

The values above are taken from PMC4520593, “Virtual Screening of Peptide and Peptidomimetic Fragments Targeted to Inhibit Bacterial Dithiol Oxidase DsbA” (PLoS ONE, 2015).
